# Laboratory results taken from USRE37999E1, “20-(B)-20,25-dihydroperoxy-3β-hydroxycholest-5-ene and 20-(S)-20,25-dihydroperoxy-3β-hydroxycholest-5-ene” (Iowa State University Research Foundation, Inc., priority 1988, dated 2003).
# Several values for one entry are separate records, joined by “and”; a condition that tells them apart may be missing. Equal values may be shown once.
# Experiments:
# [1] = tested on: mouse peritoneal macrophages; assay: Esterification of cholesterol in mouse peritoneal macrophages (3H-oleate incorporation into cholesteryl ester); format: cell-based; settings: 15 min preincubation
# Description: The effects of cholesterol hydroperoxides on the esterification of cholesterol in mouse peritoneal macrophages was tested as follows:
# Monolayers of mouse peritoneal macrophages were pretreated with various concentration of ⟦deleted by reissue: 20-(S)-hydroperoxy-cholest-5-ene-3β,25-diol hydroxycholesterol (A) or 20-(R)-hydroperoxycholest-5-ene-3β,25 diol (B) ⟧ 20-(S)-20,25-dihydroperoxy-3β-hydroxycholest-5-ene-(A) or 20-(R)-20,25-dihydroperoxy-3β-hydroxycholest-5-ene (B) at 37° C. After 15 min preincubation, medium M199 providing 2.5% fetal calf serum, acetyl-LDL (25 μg protein/ml) and ^3H-oleate (0.25 μCi/ml) was added to the culture dishes. After 6 hr of incubation with 5% CO2 at 37° C. the cellular lipids were extracted. This layer chromatography was used to separate cholesteryl ester from other lipid classes before the radioactivity was determined. The activities reported have been corrected for losses during chromatography and elution of the thin-layer plates.
# [2] = tested on: mouse peritoneal macrophages; assay: Time course of incorporation of 3H-oleate into cholesterol esters by mouse peritoneal macrophages; format: cell-based; settings: for inhibition of 3H-oleate incorporation into cholesterol esters (in words): 50 μM compound A or 25 μM compound B
# Description: In a further experiment, the time course of incorporation of ^3H-oleate into the same cholesterol esters by mouse peritoneal macrophages was studied. Mouse peritoneal macrophages were gorwn in M199 medium containing 2.5% fetal calf serum and acetyl-LDL (25 μg protein/ml) for 18 hr at 37° C. The medium was then replaced by M199 containing 2.5% fetal calf serum; ^3H-oleate with 50 μM compound A or 25 μM compound B or no hydroperoxide. At the time intervals indicated, the medium was aspirated and the cellular lipid was extracted and analyzed by thin-layer chromatography.
# [3] = tested on: acyl-Coenzyme-A:cholesterol acyltransferase (ACAT); assay: Inhibition of ACAT in mouse liver microsomes (14C-oleoyl-Coenzyme A); format: biochemical; settings: 15 min pretreatment
# Description: In another experiment, the inhibition of ⟦deleted by reissue: acrylCoenzyme-A:cholesterol ⟧ acyl-Coenzyme-A:cholesterol acyltransferase (ACAT) by cholesterol hydroperoxides, compounds A and B was used. Mouse liver microsomes (140 μg protein/assay) were treated with various concentrations of compounds A and B for 15 min prior to starting the assay by the addition of ^14C-oleoyl-Coenzyme A (41 μM, 0.068 μCi/assay). The reaction was carried on at 37° C. for exactly 5 min. then terminated by the addition of chloroform and methanol. The cellular lipids were extracted and separated by thin-layer chromatography.
# calmodulin = calmodulin (Homo sapiens, UniProt P0DP23); assay: Inhibition of calmodulin activity (method of Leung et al. 1984); format: biochemical
# Description: The inhibition of calmodulin activity by A and B were measured using the method described by Leung et al. (1984) and the results are shown in Table 1.
# In still another experiment, inhibition of calmodulin by the same cholesterol hydroperoxides was tested. The calmodulin inhibition was assayed as described by Leung et al. (J. Biol. Chem., 259:2742-2747, 1984).
# [4] = tested on: rabbits fed an atherogenic diet; settings: cited from earlier work
# [5] = 2.5 μM hydroperoxide, 6 hr incubation with acetyl-LDL and 3H-oleate
# [6] = 5 μM hydroperoxide, 6 hr incubation
# [7] = 10 μM hydroperoxide, 6 hr incubation
# [8] = 25 μM hydroperoxide, 6 hr incubation
# [9] = 50 μM hydroperoxide, 6 hr incubation
# [10] = 75 μM hydroperoxide, 6 hr incubation
# [11] = 100 μM hydroperoxide, 6 hr incubation
# [12] = 2.5 μM, 5 min reaction at 37° C
# [13] = 0.01 μg compound preincubated with 0.3 units calmodulin, assay 30 C, 30 min
# [14] = 0.1 μg compound preincubated with 0.3 units calmodulin, assay 30 C, 30 min
# [15] = 1 μg compound preincubated with 0.3 units calmodulin, assay 30 C, 30 min
# [16] = Table 1, Control + EDTA, amount not given
# [17] = Table 9, EGTA, amount not given
Compound,"Counts per min 3H incorporated into cholesteryl ester [1, 5]","Counts per min 3H incorporated into cholesteryl ester [1, 6] [Counts per min]","Counts per min 3H incorporated into cholesteryl ester [1, 7]","Counts per min 3H incorporated into cholesteryl ester [1, 8]","Counts per min 3H incorporated into cholesteryl ester [1, 9] [Counts per min]","Counts per min 3H incorporated into cholesteryl ester [1, 10]","Counts per min 3H incorporated into cholesteryl ester [1, 11]",inhibition of 3H-oleate incorporation into cholesterol esters (in words) ([2]; 5 min),"Counts per minute in cholesterol esters [3, 12]","Counts per minute in cholesterol esters ([3]; 5 μM, 5 min reaction)","Counts per minute in cholesterol esters ([3]; 10 μM, 5 min reaction)","Counts per minute in cholesterol esters ([3]; 16.7 μM, 5 min reaction)","Counts per minute in cholesterol esters ([3]; 25 μM, 5 min reaction)","Counts per minute in cholesterol esters ([3]; 33.3 μM, 5 min reaction)","Counts per minute in cholesterol esters ([3]; 50 μM, 5 min reaction)","Counts per minute in cholesterol esters ([3]; 100 μM, 5 min reaction)",% inhibition (calmodulin; [13]) [%],nmole P produced^i (calmodulin; [13]) [nmol],% inhibition (calmodulin; [14]) [%],nmole P produced^i (calmodulin; [14]) [nmol],further results
"CC(C)(CCC[C@](C)(OO)[C@H]1CC[C@H]2[C@@H]3CC=C4C[C@@H](O)CC[C@]4(C)[C@H]3CC[C@@]21C)OO [Compound A, 20-(S)-20,25-dihydroperoxy-3β-hydroxycholest-5-ene]",55816 Counts per min and 47673 Counts per min,59136,33700 Counts per min and 29618 Counts per min,14510 Counts per min and 17621 Counts per min,6059,5074 Counts per min and 5047 Counts per min,2830 Counts per min and 3970 Counts per min,apparent at the shortest time samples,4702 Counts per minute and 4651 Counts per minute,4109 Counts per minute and 3420 Counts per minute,3033 Counts per minute and 5422 Counts per minute,1643 Counts per minute and 1206 Counts per minute,1121 Counts per minute and 652 Counts per minute,841 Counts per minute and 1141 Counts per minute,632 Counts per minute and 573 Counts per minute,304 Counts per minute and 297 Counts per minute,28,22.9,68,16.1,"Counts per minute in cholesterol ester ([2]; 50 μM compound A, 5 min): 2627 Counts per minute and 1994 Counts per minute; Counts per minute in cholesterol ester ([2]; 50 μM compound A, 10 min): 2462 Counts per minute and 3092 Counts per minute; Counts per minute in cholesterol ester ([2]; 50 μM compound A, 20 min): 5223 Counts per minute and 6049 Counts per minute; Counts per minute in cholesterol ester ([2]; 50 μM compound A, 30 min): 4007 Counts per minute and 2937 Counts per minute; Counts per minute in cholesterol ester ([2]; 50 μM compound A, 60 min): 4088 Counts per minute and 5295 Counts per minute; Counts per minute in cholesterol ester ([2]; 50 μM compound A, 120 min): 7269 Counts per minute and 10036 Counts per minute; Counts per minute in cholesterol ester ([2]; 50 μM compound A, 240 min): 19627 Counts per minute and 17564 Counts per minute; Counts per minute in cholesterol esters ([3]; 20 μM, 5 min reaction): 1652 Counts per minute and 1708 Counts per minute; % inhibition (calmodulin; [15]): 92%; nmole P produced^i (calmodulin; [15]): 12.1 nmol; % inhibition (calmodulin; Table 9, 0.01 μg): 28%; nmoles phosphate produced (calmodulin; Table 9, 0.01 μg): 22.9 nmol; % inhibition (calmodulin; Table 9, 0.1 μg): 68%; nmoles phosphate produced (calmodulin; Table 9, 0.1 μg): 16.1 nmol; % inhibition (calmodulin; Table 9, 1 μg): 92%; nmoles phosphate produced (calmodulin; Table 9, 1 μg): 12.1 nmol"
"CC(C)(CCC[C@@](C)(OO)[C@H]1CC[C@H]2[C@@H]3CC=C4C[C@@H](O)CC[C@]4(C)[C@H]3CC[C@@]21C)OO [Compound B, 20-(R)-20,25-dihydroperoxy-3β-hydroxycholest-5-ene]",41574 Counts per min and 34918 Counts per min,32751,25140 Counts per min and 16252 Counts per min,7752 Counts per min and 6232 Counts per min,4073,3177 Counts per min and 3385 Counts per min,4427 Counts per min and 2401 Counts per min,apparent at the shortest time samples,4557 Counts per minute and 3518 Counts per minute,1786 Counts per minute and 2336 Counts per minute,2499 Counts per minute and 1896 Counts per minute,920 Counts per minute and 964 Counts per minute,500 Counts per minute and 720 Counts per minute,429 Counts per minute and 563 Counts per minute,315 Counts per minute and 294 Counts per minute,131 Counts per minute and 244 Counts per minute,4,26.9,61,17.3,"Counts per minute in cholesterol ester ([2]; 25 μM compound B, 5 min): 2218 Counts per minute and 1256 Counts per minute; Counts per minute in cholesterol ester ([2]; 25 μM compound B, 10 min): 2560 Counts per minute and 2019 Counts per minute; Counts per minute in cholesterol ester ([2]; 25 μM compound B, 20 min): 3245 Counts per minute and 4788 Counts per minute; Counts per minute in cholesterol ester ([2]; 25 μM compound B, 30 min): 3202 Counts per minute and 2943 Counts per minute; Counts per minute in cholesterol ester ([2]; 25 μM compound B, 60 min): 5054 Counts per minute and 7341 Counts per minute; Counts per minute in cholesterol ester ([2]; 25 μM compound B, 120 min): 7534 Counts per minute and 9160 Counts per minute; Counts per minute in cholesterol ester ([2]; 25 μM compound B, 240 min): 18532 Counts per minute and 15819 Counts per minute; % inhibition (calmodulin; [15]): 81%; nmole P produced^i (calmodulin; [15]): 13.8 nmol; % inhibition (calmodulin; Table 9, 0.001 μg): 4%; nmoles phosphate produced (calmodulin; Table 9, 0.001 μg): 26.9 nmol; % inhibition (calmodulin; Table 9, 0.1 μg): 61%; nmoles phosphate produced (calmodulin; Table 9, 0.1 μg): 17.3 nmol; % inhibition (calmodulin; Table 9, 1 μg): 81%; nmoles phosphate produced (calmodulin; Table 9, 1 μg): 13.8 nmol"
"O=C(O)CN(CCN(CC(=O)O)CC(=O)O)CC(=O)O [EDTA, reference compound]",–,–,–,–,–,–,–,–,–,–,–,–,–,–,–,–,–,–,–,–,% inhibition (calmodulin; [16]): 100%; nmole P produced^i (calmodulin; [16]): 10.7 nmol
"O=C(O)CN(CCOCCOCCN(CC(=O)O)CC(=O)O)CC(=O)O [EGTA, reference compound]",–,–,–,–,–,–,–,–,–,–,–,–,–,–,–,–,–,–,–,–,% inhibition (calmodulin; [17]): 100%; nmoles phosphate produced (calmodulin; [17]): 10.7 nmol
CN(C)CCCN1c2ccccc2Sc2ccc(Cl)cc21 [chlorpromazine],–,–,–,–,–,–,–,–,–,–,–,–,–,–,–,–,–,–,–,–,blood cholesterol [4]: without lowering of blood cholesterol; development of atherosclerotic lesions [4]: reduced the development of such lesions
